In ChEMBL document CHEMBL1201862, “PubChem BioAssay data set” (2004):
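Protocol summary: plate cells (96-well), add compound at 5 concentrations, incubate 48 h, interpolate endpoints linearly. Here, GI50 denotes the concentration required for 50% inhibition of growth.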 Active and inactive are the calls of the source. No stated cut-off is given here; in the data, active = GI50 up to about 1.1 µM and inactive = higher.

What was measured:
Assay in all cases: DTP human tumour cell line panel, 48 h
[1] = tested on: CAKI-1
[2] = tested on: DMS-114
[3] = tested on: DMS-273
[4] = tested on: HCC 2998
[5] = tested on: HCT-116
[6] = tested on: IGROV-1
[7] = tested on: KM12
[8] = tested on: LOX IMVI
[9] = tested on: NCI-H522
[10] = tested on: RPMI-8226
[11] = tested on: SN12C
[12] = tested on: SNB-19
[13] = tested on: SW-620
[14] = tested on: U-251
[15] = tested on: EKVX
[16] = tested on: SK-MEL-2
[17] = tested on: A498
[18] = tested on: DU-145
[19] = tested on: MCF7
[20] = tested on: MDA-MB-435

Measured: GI50

COc1ccc(/C(=N/NC(N)=O)C(c2ccc(OC)cc2)C2C(=O)Oc3ccccc32)cc1 (stereo not drawn)
inactive: [1] > 100 µM | [2] > 100 µM | [3] > 100 µM | [4] > 100 µM | [5] > 100 µM | [6] > 100 µM | [7] > 100 µM | [8] > 100 µM | [9] > 100 µM | [10] > 100 µM | [11] > 100 µM | [12] > 100 µM | [13] > 100 µM | [14] > 100 µM

CCCCOP1(=O)C=C(C)C(=C(Cl)Cl)C(C)=C1 (stereo not drawn)
inactive: [1] 5.83 µM | [2] 3.48 µM | [3] 3.63 µM | [15] 47.4 µM | [4] 22.3 µM | [5] 2.3 µM | [6] 14.8 µM | [7] 2 µM | [8] 5.21 µM | [9] 5.45 µM | [10] 2.74 µM | [16] 1.98 µM | [11] 7.31 µM | [12] 25.8 µM | [13] 3.98 µM | [14] 6.97 µM

COC(=O)N/N=C(\C)CC(=O)Nc1ccc(Cl)cc1
inactive: [17] > 100 µM | [2] > 100 µM | [15] 46.7 µM | [4] > 100 µM | [5] > 100 µM | [6] > 100 µM | [7] > 100 µM | [8] > 100 µM | [9] 58.5 µM | [10] > 100 µM | [16] > 100 µM | [13] > 100 µM | [14] > 100 µM

COc1ccc(N2C(=O)C3c4[nH]c5ccccc5c4C4CCC(C(C)(C)C)CC4C3C2=O)cc1OC (stereo not drawn)
inactive: [17] 19.9 µM | [3] 17.1 µM | [15] 35.8 µM | [4] 48.8 µM | [5] 16.1 µM | [6] 33 µM | [9] 15.4 µM | [10] 22.2 µM | [11] 23 µM | [12] 26.2 µM | [13] 26.7 µM | [14] 27.6 µM

OC12CC/C(=N/OCc3ccccc3)CC1c1ccccc12 (stereo not drawn)
inactive: [1] > 100 µM | [2] > 100 µM | [3] > 100 µM | [15] > 100 µM | [4] > 100 µM | [5] > 100 µM | [6] > 100 µM | [7] > 100 µM | [8] > 100 µM | [9] > 100 µM | [10] > 100 µM | [16] > 100 µM | [11] > 100 µM | [12] > 100 µM | [14] > 100 µM

CCn1c2ccccc2c(=O)c2c(OC)ccc(OC)c21
inactive: [17] 25.4 µM | [1] 22.9 µM | [3] 30.8 µM | [15] > 66.5 µM | [5] 51.1 µM | [6] 46.9 µM | [7] 79.6 µM | [8] 36.1 µM | [9] 20.6 µM | [10] 35.5 µM | [16] 75.5 µM | [11] 42.5 µM | [12] 49.9 µM | [13] 32.8 µM | [14] 64.6 µM

C=CC/C(C(=O)OC)=C(/C(=O)OC)N(CCC)CCC
inactive: [17] > 100 µM | [1] > 100 µM | [18] > 100 µM | [15] 74.3 µM | [4] > 100 µM | [5] 57.9 µM | [6] > 100 µM | [7] > 100 µM | [8] > 100 µM | [19] 63.2 µM | [20] > 100 µM | [9] 83.8 µM | [10] 41.9 µM | [16] > 100 µM | [11] > 100 µM | [12] > 100 µM | [13] 76.7 µM | [14] 59.4 µM
